For data set [1] the following is noted: cited from earlier work.
In a further data set the test system is H37Rv-Mtb. The data set is described as follows: MIC against replicating H37Rv-Mtb in liquid media. Conditions: for MIC: replicating, 5 days, OD590. It counts as cell-based, Mycobacterium tuberculosis.
The next data set deals with VERO cell line. Kind of data set: Eukaryotic cytotoxicity (CellTiter-Glo). In kind it is cell-based, African green monkey. The following applies: Chlorocebus sabaeus, 48 h, 2-day incubation, read-out: VERO Toxicity IC50. The protocol:
Cytotoxicity was tested against the African green monkey adult kidney cell line (VERO, ATCC CRL-1586) as described. Compounds were tested as 10-point, 3-fold serial dilutions in DMSO (final assay concentration of 1% DMSO) and viability was measured using CellTiter-Glo (Promega). Inhibition curves were fitted using the Levenberg–Marquardt algorithm. IC50 was defined as the concentration required to reduce cell viability by 50% after 2-day incubation.
Background: ATP-based viability assays read luminescence as a measure of living cells.

In data set [2] the test system is M. tuberculosis GC1237 (Mtb-GFP) in Raw 264.7 macrophages. Kind of data set: Intracellular mycobacterial replication assay in macrophages. It counts as cell-based. The following applies: Mycobacterium tuberculosis, 120 h, 5 days, read-out: MIC, intracellular M. tuberculosis growth in macrophages.
For data set [3] the test system is unchanged. The following applies: cited from earlier work.
The conditions of data set [4]: cited from earlier work. This is another data set of the same source.
The subject of a further data set is M. tuberculosis Erdman. Kind of data set: Chronic Balb/c model of TB infection. In kind it is in vivo, Balb/c mice. Conditions: 25 mg/kg.
The test system of another data set is replicating Mtb. Conditions: against three family strains; cited from earlier work.
Data set [5] concerns M. tuberculosis strain H37Rv-LUX. The data set is described as follows: microbe, parasite or virus in culture. It counts as cell-based. Conditions: Mycobacterium tuberculosis, read-out: LORA MIC.
The subject of data set [6] is murine Raw 264.7 macrophages. Conditions: mouse.
A short description of a further data set: physchem. Conditions: pH 6.8, aqueous buffer, kinetic from dmso stock.
For data set [7] the following is noted: in vivo; cited from earlier work.
The mark [8] stands for this setting: Mycobacterium tuberculosis, H37RV, 120 h.

One may read the IC50 as the concentration at which inhibition is half-maximal. In general, IC90 refers to the point of the concentration-response curve where the effect stands at 90%. By solubility is commonly meant how much of the substance goes into solution per volume.

≈ marks a conversion by molar mass, not a printed value. Where “and” joins values, the source holds several entries; their conditions need not be identical. Identical values can stand only once. Like-named read-outs stand apart in the source and are kept apart here.

Method for physchem: The relative solubility of compounds was determined in microbiological medium using turbidity as a measure [27]. A serial dilution of compounds was prepared in DMSO and then transferred to microbiological medium at pH 6.8.

`O=C(/C=C/c1cccs1)N1CCN(Cc2ccc3c(c2)OCO3)CC1` [AX-35]: the MIC in [1] was 0.14 μM and 0.05 μg/mL.
Take `C[C@H]1COC2(CCN(c3nc(=O)c4cc(C(F)(F)F)cc([N+](=O)[O-])c4s3)CC2)O1` [BTZ043, reference compound]: the MIC worked out at 0.002 µM (≈ 0.000863 µg/mL) with H37Rv-Mtb (setting [8]) and 0.0078 µM (≈ 0.00336 µg/mL) in data set [2]. In addition, the IC50 in the data set with VERO cell line is more than 50 µM. Further, the “MIC, intracellular, previous reports” value in [3] was less than 0.098 µM.
Consider `NC(=O)c1sc(N2CCOCC2)cc1OCCc1ccc(OC(F)(F)F)cc1` [Compound 6], for which the MIC in data set [4] is 0.2 µM (≈ 0.0833 µg/mL).
On to `NNC(=O)c1ccncc1` [INH, Isoniazid], for which, in the data set on M. tuberculosis Erdman (4 weeks), the “Log reduction vs Control (Lung)” value was determined as 1.73 log10 CFU and the “Log reduction vs Control (Spleen)” value amounted to 2.87 log10 CFU. In the data set on M. tuberculosis Erdman (ERDMAN, 672 h), the “Lung Log10 CFU ±SEM” value came to 4.06 ± 0.11 Log10 CFU and the “Spleen Log10 CFU ±SEM” value is reported as 2.13 ± 0.12 Log10 CFU.
On to `Cc1c(OCC(F)(F)F)ccnc1CSc1nc2ccccc2[nH]1` [LPZS], for which the IC90 with replicating Mtb is 1.1 to 1.7 µM.
As for `Cc1cn2c(C(=O)NCc3ccc4c(c3)CCO4)c(C)nc2s1` [ND-11459, N-((2,3-Dihydrobenzofuran-5-yl)methyl)-2,6-dimethylimidazo[2,1-b]thiazole-5-carboxamide], the MIC in data set [5] is 12.4 µM (≈ 4.06 µg/mL); in data set [2] it was 1.25 to 2.5 µM (≈ 0.409 to 0.819 µg/mL). The IC50 in the data set with VERO cell line was more than 50 µM. Also, the “Macrophage toxicity concentration relative to MIC” value in data set [6] is 4 and 8-fold higher than their MIC. The compound also showed a solubility in “physchem” not below 200 µM.
With `CCc1nc2sc(C)cn2c1C(=O)NCc1ccc2c(c1)CCO2` [ND-11503, N-((2,3-Dihydrobenzofuran-5-yl)methyl)-6-ethyl-2-methylimidazo[2,1-b]thiazole-5-carboxamide], the MIC with H37Rv-Mtb (setting [8]) was 0.25 to 0.54 µM (≈ 0.0854 to 0.184 µg/mL); in the data set on H37Rv-Mtb it was 0.25 µM (≈ 0.0854 µg/mL); in data set [5], 2.7 µM (≈ 0.922 µg/mL); in data set [2], 1.25 to 2.5 µM (≈ 0.427 to 0.854 µg/mL). In addition, the IC50 with VERO cell line was more than 50 µM. Also, the solubility in “physchem” was not below 200 µM.
With `Cc1cn2c(C(=O)NCc3ccc(Oc4cccc(C(F)(F)F)c4)cc3)c(C)nc2s1` [ND-11564, 2,6-Dimethyl-N-(4-(3-(trifluoromethyl)phenoxy)benzyl)imidazo[2,1-b]thiazole-5-carboxamide], the MIC against H37Rv-Mtb (setting [8]) came out at 0.16 µM (≈ 0.0713 µg/mL); with H37Rv-Mtb, 0.16 µM (≈ 0.0713 µg/mL); in data set [5], 9.68 µM (≈ 4.31 µg/mL); in data set [2], 0.25 µM (≈ 0.111 µg/mL). Moreover, the IC50 in the data set with VERO cell line was more than 50 µM. Also, in [6], the “Macrophage toxicity concentration relative to MIC” value was 4 and 8-fold higher than their MIC. This compound displayed a solubility in the data set “physchem” of 100 µM (≈ 44.5 µg/mL).
For `Cc1cn2c(C(=O)Nc3ccc(Oc4cccc(C(F)(F)F)c4)cc3)c(C)nc2s1` [ND-11566, 2,6-Dimethyl-N-(4-(3-(trifluoromethyl)phenoxy)phenyl)imidazo[2,1-b]thiazole-5-carboxamide], the “Fold difference in potency, anilide vs benzylic amide ND-11564” value with H37Rv-Mtb (MIC H37Rv-Mtb comparison) is more than 50 fold. The MIC against H37Rv-Mtb (setting [8]) is 9.1 µM (≈ 3.93 µg/mL); in the data set on H37Rv-Mtb it was 9.10 µM (≈ 3.93 µg/mL); in data set [5], more than 100 µM. In addition, the IC50 in the data set on VERO cell line was more than 50 µM. The solubility in “physchem” was determined as 50 µM (≈ 21.6 µg/mL).
In the case of `Cc1cn2c(C(=O)NCc3ccc(N4CCS(=O)(=O)CC4)c(F)c3)c(C)nc2s1` [ND-11903, N-(4-(1,1-Dioxidothiomorpholino)-3-fluorobenzyl)-2,6-dimethylimidazo[2,1-b]thiazole-5-carboxamide], in the data set with H37Rv-Mtb (MIC H37Rv-Mtb comparison), the “Fold less active than the most potent lipophilic compounds (ND-11543, ND-11564)” value was more than 100 fold. The MIC against H37Rv-Mtb (setting [8]) was found to be 3.7 µM (≈ 1.62 µg/mL); in [5], 200 µM (≈ 87.3 µg/mL). Besides, the IC50 with VERO cell line was more than 50 µM. Further, the solubility in the data set “physchem” is more than 200 µM.
For the compound `Cc1cn2c(C(=O)NCc3ccc(N4CCS(=O)(=O)CC4)cc3)c(C)nc2s1` [ND-12015, N-(4-(1,1-Dioxidothiomorpholino)benzyl)-2,6-dimethylimidazo[2,1-b]thiazole-5-carboxamide], the “Fold less active than the most potent lipophilic compounds (ND-11543, ND-11564)” value in the data set on H37Rv-Mtb (MIC H37Rv-Mtb comparison) is recorded as more than 100 fold. This compound also showed an MIC with H37Rv-Mtb (setting [8]) of 13 µM (≈ 5.44 µg/mL). For the same compound, the IC50 in the data set with VERO cell line is more than 50 µM. In “physchem”, this compound displayed a solubility of 200 µM (≈ 83.7 µg/mL).
As for `CCc1nc2sc(C)cn2c1C(=O)NCc1ccc(Oc2cccc(C(F)(F)F)c2)nc1` [ND-12024, 6-Ethyl-2-methyl-N-((6-(3-(trifluoromethyl)phenoxy)yridine-3-yl)methyl)imidazo[2,1-b]thiazole-5-carboxamide], the MIC against H37Rv-Mtb (setting [8]) was 0.21 µM (≈ 0.0967 µg/mL). Further, in the data set on VERO cell line, the IC50 was more than 50 µM. This compound showed a solubility in the data set “physchem” of 50 µM (≈ 23 µg/mL).
Taken in the same sequence, the figures for `Cc1cn2c(C(=O)NCc3ccc(Oc4cccc(C(F)(F)F)c4)nc3)c(C)nc2s1` [ND-12025, 2,6-Dimethyl-N-((6-(3-(trifluoromethyl)phenoxy)yridine-3-yl)methyl)imidazo[2,1-b]thiazole-5-carboxamide] were 0.33 µM (≈ 0.147 µg/mL), more than 50 µM and 100 µM (≈ 44.6 µg/mL).
With `CCc1nc2ccc(Cl)cn2c1C(=O)NCc1ccc(N2CCC(c3ccc(OC(F)(F)F)cc3)CC2)cc1` [Q203], the MIC in the data set with H37Rv-Mtb (setting [8]) was 0.005 µM (≈ 0.00279 µg/mL); in data set [5], 1.3 µM (≈ 0.724 µg/mL); in [2], 0.0078 µM (≈ 0.00434 µg/mL). For the same compound, the IC50 in the data set on VERO cell line was more than 50 µM. Moreover, in data set [3], the “MIC, intracellular, previous reports” value was less than 0.098 µM. This compound also had a solubility in “physchem” of 100 µM (≈ 55.7 µg/mL). Further, the “AUC 0–24” value in [7] is reported as 44,100 ng·hr/mL.

The values are drawn from PMC6944458, “Intracellular and in vivo evaluation of imidazo[2,1-b]thiazole-5-carboxamide anti-tuberculosis compounds” (PLoS ONE, 2020).
